Source: PMC7997578, “Design, Synthesis, Dynamic Docking, Biochemical Characterization, and in Vivo Pharmacokinetics Studies of Novel Topoisomerase II Poisons with Promising Antiproliferative Activity” (Journal of Medicinal Chemistry, 2020)
Like-named read-outs stand apart in the source and are kept apart here.

What was measured:
[1] = aqueous kinetic solubility; format: physicochemical; details: PBS, pH 7.4, PBS pH 7.4, target 250 µM, 2.5% DMSO, 25°C
Description: 1. In vitro m etabolic stabili ty
In vitro microsomial stability. 10mM DMSO stock solution of test compound was pre-incubated at 37 °C for 15min with mouse liver microsomes added 0.1M Tris-HCl buffer (pH 7.4). The final concentration was 4.6µM. After pre -incubation, the co-factors (NADPH, G6P, G6PDH and MgCl2 pre-dissolved in 0.1M Tris-HCl) were added to the incubation mixture and the incubation was continued at 37 °C for 1h. At each time point (0, 5, 15, 30, 60min), 30µL of incubation mixture was diluted with 200µL cold CH 3CN spiked with 200n M of internal standard, followed by centrifugation at 3500g for 15min. The supernatant was further diluted with H2O (1:1) for analysis. The concentration of test compound was quantified by LC/MS-MS on a Waters ACQUITY UPLC/M S TQD system consisting of a TQD (Triple Quadrupole Detector) Mass Spectrometer equipped with an Electrospray Ionization interface. The analyses were run on an ACQUITY UPLC BEH C18 (50x2.1mmID, particle size 1.7µm) with a VanGuard BEH C18 pre -column (5x2.1mmID, particle size 1.7µm) at 40°C, using 0.1% HCOOH in H 2O (A) and 0.1% HCOOH in CH 3CN (B) as mobile phase. Electrospray ionization (ESI) was app lied in positive mode . The percentage of test compound remaining at each time point relative to t=0 was calculated. The half -lives (t½) were determined by an one-phase decay equation using a non -linear regression of compound concentration versus time.
In vitro Plasma Stability. 10mM DMSO stock solution of test compound was diluted 50 -fold with DMSO-H2O (1:1) and incubated at 37 °C for 2 h with mouse plasma added 5% DMSO (pre-heated at 37 °C for 10 min). The final concentration was 2µM. At each time point (0, 5, 15, 30, 60, 120min), 50 µL of incubation mixture was diluted with 200µL cold CH3CN spiked with 200nM of internal standard, followed by centrifugation at 3500g for 20min. The supernatant was further diluted with H2O (1:1) for analysis. The concentration of test compound was quantified by LC/MS-MS on a Waters ACQUITY UPLC/MS TQD system consisting of a TQD (Triple Quadrupole Detector) Mass Spectrometer equipped with an Electrospray Ionization interface. The analyses were run on an ACQUITY UPLC BEH C18 (50x2.1mmID, particle size 1.7µm) with a VanGuard BEH C18 pre - column (5x2.1mmID, particle size 1.7µm) at 40°C, using 0.1% HCOOH in H2O (A) and 0.1% HCOOH in CH3CN (B) as mobile phase. Electrospray ionization (ESI) was applied in positive mode.
The response factors, calculated on the basis of the internal standard peak area, were plotted over time. When possible, response vs. time profiles were fitted with Prism (GraphPad Software, Inc., USA) to estimate compounds half-life in plasma.
2. Aqueous ki netic solu bili ty
The aqueous kinetic solubility was determined from a 10mM DMSO stock solution of test compound in Phosphate Buffered Saline (PBS) at pH 7.4. The study was performed by incubation of an aliquot of 10mM DMSO stock solution in PBS (pH 7.4) at a target concentration of 250µM resulting in a final concentration of 2.5% DMSO. The incubation was carried out under shaking at 25°C for 24h followed by centrifugation at 21.100g for 30min. The supernatant was analyzed by UPLC/MS for the quantification of dissolved compound by UV at a specific wavelength (215nm).
The analyses were performed on a Waters ACQUITY UPLC/MS SQD system consisting of a SQD (Single Quadrupole Detector) Mass Spectrometer equipped with Electrospray Ionization interface.
The analyses were run on an ACQUITY UPLC BEH C18 column (50x2.1mmID, particle size 1.7µm) with a VanGuard BEH C18 pre-column (5x2.1mmID, particle size 1.7µm), using 10mM NH4OAc in H2O at pH 5 adjusted with AcOH (A) and 10mM NH4OAc in MeCN-H2O (95:5) at pH 5 (B) as […]

DU145 cells = test: cell viability MTT assay, DU145; format: cell-based, human; details: mean ± SD of two experiments, read-out: DU145 antiproliferative activity IC50
Description: The antiproliferative activity of all compounds was evaluated in (i) DU145, an androgen-independent prostate cancer cell line; (ii) HeLa, a cervical cancer cell line; and (iii) A549, a lung adenocarcinoma cell line (Table 1). […] Undoubtedly, this preliminary cytotoxicity data will need further characterization, also in relation to the in vitro activity of these compounds.
Human cancer cell lines A549 (lung adenocarcinoma, ATCC CCL-185), DU-145 (androgen-independent prostate cancer, ATCC HTB-81), and HeLa (cervical carcinoma, ATCC CCL-2) were obtained from ATCC. Cells were routinely grown in minimal essential medium containing Eagle’s salts and L-glutamine supplemented with 10% heat-inactivated FBS in a humidified atmosphere of 5% CO2 at 37 °C. To assess the antiproliferative activity of the compounds, cells were seeded at a density of 2500 cells/well (HeLa) or 5000 cells/well (A549, DU-145) in 96-well plates, and cell viability was measured using the MTT assay as described previously.[39] Values are reported as the mean ± SD of two independent experiments.

`O=C(Nc1cccc(OC(F)(F)F)c1)c1c(O)n(-c2ccccc2)c(=S)n(-c2ccccc2)c1=O` [3f, 6-Hydroxy-4-oxo-1,3-diphenyl-2-thioxo-N-(3-(trifluoromethoxy)phenyl)-1,2,3,4-tetrahydropyrimidine-5-carboxamide] showed a solubility kinetic at 24 h [1] of over 200 µM, an IC50 (DU145 cells; DU145 prostate cancer cells) of 4.7 ± 0.1 µM and an IC50 (DU145 cells; Homo sapiens, DU-145, DU145 prostate cancer cells) of under 5 µM.
